Data taken from patent US20200407365A1, “INDOLE-2-CARBONYL COMPOUNDS AND THEIR USE FOR THE TREATMENT OF HEPATITIS B” (Novartis AG, priority 2018, published 2020).
pEC50: −log10 of the molar value.

Tested on: HBV replication in HepG2.cl42 cells
Assay: Anti-HBV assay (HBV DNA by quantitative real time PCR in HepG2.cl42 cells)
Type: cell-based, HBV ayw strain
Details: Hepatitis B virus, 96 h, compound treatment four days, read-out: HBsAg EC50

SMILES | pEC50
CC1(C)CCN(c2cnn3c2CN(C(=O)c2cc4ccccc4[nH]2)CC3)C1=O [Compound 1.1, 1-(5-(1H-indole-2-carbonyl)-4,5,6,7-tetrahydropyrazolo[1,5-a]pyrazin-3-yl)-3,3-dimethylpyrrolidin-2-one] | < 6.00
CC1(C)CC(=O)N(c2cnn3c2CN(C(=O)c2cc4ccccc4[nH]2)CC3)C1 [Compound 1.2] | 6.00 to 7.00
COC[C@@H]1CN(c2cnn3c2CN(C(=O)c2cc4ccccc4[nH]2)CC3)C(=O)CO1 [Compound 1.3] | 6.00 to 7.00
O=C(c1cc2ccccc2[nH]1)N1CCn2ncc(N3CCOCC3=O)c2C1 [Compound 1.4] | 6.00 to 7.00
CC1(C)CN(c2cnn3c2CN(C(=O)c2cc4ccccc4[nH]2)CC3)C(=O)CO1 [Compound 1.5] | 6.00 to 7.00
O=C(c1cc2ccccc2[nH]1)N1CCn2ncc(N3CCCCC3=O)c2C1 [Compound 1.6] | 6.00 to 7.00
CC1(C)CN(c2cnn3c2CN(C(=O)c2cc4ccccc4[nH]2)CC3)C(=O)O1 [Compound 2.1, 3-(5-(1H-indole-2-carbonyl)-4,5,6,7-tetrahydropyrazolo[1,5-a]pyrazin-3-yl)-5,5-dimethyloxazolidin-2-one] | > 7.00
Cc1c(C(=O)N2CCn3ncc(N4CC(C)(C)OC4=O)c3C2)[nH]c2ccccc12 [Compound 2.2] | < 6.00
CCc1c(C(=O)N2CCn3ncc(N4CC(C)(C)OC4=O)c3C2)[nH]c2ccccc12 [Compound 2.3] | < 6.00
CC1(C)CN(c2cnn3c2CN(C(=O)c2[nH]c4ccccc4c2C#N)CC3)C(=O)O1 [Compound 2.4] | < 6.00
CC1(C)CN(c2cnn3c2CN(C(=O)c2[nH]c4ccccc4c2Cl)CC3)C(=O)O1 [Compound 2.5] | < 6.00
CC1(C)CN(c2cnn3c2CN(C(=O)c2cc4cc(F)ccc4[nH]2)CC3)C(=O)O1 [Compound 2.6] | > 7.00
CC1(C)CN(c2cnn3c2CN(C(=O)c2cc4ccc(F)cc4[nH]2)CC3)C(=O)O1 [Compound 2.7] | > 7.00
CC1(C)CN(c2cnn3c2CN(C(=O)c2cc4ccc(Cl)cc4[nH]2)CC3)C(=O)O1 [Compound 2.8] | > 7.00
CC1(C)CN(c2cnn3c2CN(C(=O)c2cc4cccc(Cl)c4[nH]2)CC3)C(=O)O1 [Compound 2.9] | 6.00 to 7.00
COc1ccc2[nH]c(C(=O)N3CCn4ncc(N5CC(C)(C)OC5=O)c4C3)cc2c1 [Compound 2.10] | < 6.00
CC1(C)CN(c2cnn3c2CN(C(=O)c2cc4ccc(C#N)cc4[nH]2)CC3)C(=O)O1 [Compound 2.11] | 6.00 to 7.00

SMILES | pEC50
Cc1ccc2cc(C(=O)N3CCn4ncc(N5CC(C)(C)OC5=O)c4C3)[nH]c2c1 [Compound 2.12] | > 7.00
COc1ccc2cc(C(=O)N3CCn4ncc(N5CC(C)(C)OC5=O)c4C3)[nH]c2c1 [Compound 2.13] | 6.00 to 7.00
Cc1cccc2[nH]c(C(=O)N3CCn4ncc(N5CC(C)(C)OC5=O)c4C3)cc12 [Compound 2.14] | > 7.00
Cc1ccc2[nH]c(C(=O)N3CCn4ncc(N5CC(C)(C)OC5=O)c4C3)cc2c1 [Compound 2.15] | 6.00 to 7.00
CC1(C)CN(c2cnn3c2CN(C(=O)c2cc4cc(Cl)ccc4[nH]2)CC3)C(=O)O1 [Compound 2.16] | 6.00 to 7.00
CC1(C)CN(c2cnn3c2CN(C(=O)c2cc4cccc(F)c4[nH]2)CC3)C(=O)O1 [Compound 2.17] | 6.00 to 7.00
Cc1cccc2cc(C(=O)N3CCn4ncc(N5CC(C)(C)OC5=O)c4C3)[nH]c12 [Compound 2.18] | 6.00 to 7.00
COc1cccc2cc(C(=O)N3CCn4ncc(N5CC(C)(C)OC5=O)c4C3)[nH]c12 [Compound 2.19] | < 6.00
CC1(C)CN(c2cnn3c2CN(C(=O)c2cc4c(Cl)cccc4[nH]2)CC3)C(=O)O1 [Compound 2.20] | > 7.00
CC1(C)CN(c2cnn3c2CN(C(=O)c2cc4cnc(Cl)cc4[nH]2)CC3)C(=O)O1 [Compound 2.21] | 6.00 to 7.00
CC1(C)CN(c2cnn3c2CN(C(=O)c2cc4c(F)cccc4[nH]2)CC3)C(=O)O1 [Compound 2.22] | > 7.00
C[C@H]1Cn2ncc(N3CC(C)(C)OC3=O)c2CN1C(=O)c1cc2ccccc2[nH]1 [Compound 2.23] | < 6.00
COC[C@H]1CN(c2cnn3c2CN(C(=O)c2cc4ccccc4[nH]2)CC3)C(=O)O1 [Compound 3.1, (R)-3-(5-(1H-indole-2-carbonyl)-4,5,6,7-tetrahydropyrazolo[1,5-a]pyrazin-3-yl)-5-(methoxymethyl)oxazolidin-2-one] | > 7.00
COC[C@@H]1CN(c2cnn3c2CN(C(=O)c2cc4ccccc4[nH]2)CC3)C(=O)O1 [Compound 3.2] | 6.00 to 7.00
CC1(C)COC(=O)N(c2cnn3c2CN(C(=O)c2cc4ccccc4[nH]2)CC3)C1 [Compound 3.3] | 6.00 to 7.00
O=C(c1cc2ccccc2[nH]1)N1CCc2noc(N3CCCCC3=O)c2C1 [Compound 4.1, 1-(5-(1H-indole-2-carbonyl)-4,5,6,7-tetrahydroisoxazolo[4,3-c]pyridin-3-yl)piperidin-2-one] | > 7.00
